For 31 compounds, IC50 and Activity results are on record in ChEMBL document CHEMBL1138338, “Design, synthesis, and structure-activity relationships of a novel series of 5-alkylidenepyridazin-3(2H)-ones with a non-cAMP-based antiplatelet activity” (J Med Chem, 2007).

SMILES strings stand for the structures. Activity calls are given as the source filed them. The rule behind the calls is not given here.

Test system in the first experiment: not listed separately
Nature of the experiment: Inhibition of PDE3 in guinea pig ventricle. More on the design: species or system Cavia porcellus.
In general, IC50 refers to the concentration that gives 50% inhibition. Low readings indicate greater potency, high ones weaker potency. On to `COC(=O)C(=Cc1cc(=O)n(C)nc1-c1ccccc1)C(=O)OC`, for which it took 2000 µM to reach half-maximal inhibition (IC50).
The compound `CCOC(=O)C(=Cc1cc(=O)[nH]nc1-c1ccccc1)C(=O)OCC` yielded an IC50 of 2000 µM.
`COC(=O)C(=Cc1cc(=O)[nH]nc1-c1ccccc1)C(=O)OC` had an IC50 of 2000 µM.

Test system in another experiment: not listed separately
Nature of the experiment: (§1) Inhibition of thrombin-induced platelet aggregation in human platelets after 5 mins by turbidimetric method. Type of experiment: functional, cell-based.
In the case of `CC(C)OC(=O)C(=Cc1cc(=O)[nH]nc1-c1ccccc1)C(=O)OC(C)C`, the IC50 came out at 17.5 µM.
As to `CCOC(=O)C(=Cc1cc(=O)n(C)nc1-c1ccccc1)C(=O)OCC`, half-maximal inhibition (IC50) required 17 µM.
On the same count and under the same terms, to `CCOC(=O)C(=Cc1cnn(Cc2ccccc2)c(=O)c1)C(=O)OCC` belongs 3.62 µM; to `CC(C)(C)OC(=O)C(=Cc1cc(=O)[nH]nc1-c1ccccc1)C(=O)OC(C)(C)C`, 7.5 µM; to `COC(=O)C(=Cc1cnn(Cc2ccccc2)c(=O)c1)C(=O)OC`, 4.86 µM.
The compound `Cn1ncc(C=C(C(=O)OC(C)(C)C)C(=O)OC(C)(C)C)cc1=O` showed an IC50 of 95 µM.
In turn, `Cn1ncc(C=C(C(=O)OCc2ccccc2)C(=O)OCc2ccccc2)cc1=O` had a half-inhibitory concentration (IC50) of 1.64 µM.
Still for that read-out and setting: to `CC(C)OC(=O)C(=Cc1cnn(C)c(=O)c1)C(=O)OC(C)C` belongs 13.3 µM; to `O=C(/C=C/c1cnn(Cc2ccccc2)c(=O)c1)c1ccccc1`, 170 µM.
The same measure, in the same setting: to `N#C/C=C/c1cnn(Cc2ccccc2)c(=O)c1` belongs 221 µM; to `COC(=O)C(=Cc1cc(=O)n(C)nc1-c1ccccc1)C(=O)OC`, 9.2 µM.
`COC(=O)C(=Cc1cnn(C)c(=O)c1)C(=O)OC` gave a concentration for half-maximal inhibition (IC50) of 15.6 µM.
The compound `CC(C)(C)OC(=O)C(=Cc1cnn(Cc2ccccc2)c(=O)c1)C(=O)OC(C)(C)C` gave an IC50 of 6.25 µM.
In the case of `CC(C)OC(=O)C(=Cc1cnn(Cc2ccccc2)c(=O)c1)C(=O)OC(C)C`, the IC50 came out at 2.9 µM.
Same read-out and setting: the figure for `CCOC(=O)C(=Cc1cc(=O)[nH]nc1-c1ccccc1)C(=O)OCC` is 20 µM.
On the same count and under the same terms, to `Cn1nc(-c2ccccc2)c(C=C(C(=O)OC(C)(C)C)C(=O)OC(C)(C)C)cc1=O` belongs 45 µM.
On the same count and under the same terms, to `Cn1nc(-c2ccccc2)c(C=C(C(=O)OCc2ccccc2)C(=O)OCc2ccccc2)cc1=O` belongs 1.4 µM.
`N#CC(C#N)=Cc1cnn(Cc2ccccc2)c(=O)c1` registered a half-maximal inhibitory concentration (IC50) of 126 µM.
The compound `O=C(OCc1ccccc1)C(=Cc1cn[nH]c(=O)c1)C(=O)OCc1ccccc1` returned a 50% inhibitory concentration (IC50) of 3.58 µM.
Regarding `CCOC(=O)C(=Cc1cnn(C)c(=O)c1)C(=O)OCC`, the midpoint of inhibition, the IC50, lay at 12.3 µM.
Still for that read-out and setting: the figure for `CC(C)OC(=O)C(=Cc1cc(=O)n(C)nc1-c1ccccc1)C(=O)OC(C)C` is 4.1 µM; for `COC(=O)C(=Cc1cn[nH]c(=O)c1)C(=O)OC` it is 40.2 µM.
The same measure, in the same setting: to `O=C(OCc1ccccc1)C(=Cc1cnn(Cc2ccccc2)c(=O)c1)C(=O)OCc1ccccc1` belongs 1.36 µM; to `O=C1C(CC[S+]([O-])c2ccccc2)C(=O)N(c2ccccc2)N1c1ccccc1` (configuration not stated) [SULFINPYRAZONE], 509 µM.
Same read-out and setting: to `O=C(OCc1ccccc1)C(=Cc1cc(=O)[nH]nc1-c1ccccc1)C(=O)OCc1ccccc1` belongs 1.8 µM; to `COC(=O)C(=Cc1cc(=O)[nH]nc1-c1ccccc1)C(=O)OC`, 45 µM.
In turn, `Cn1ncc(C=C(C#N)C#N)cc1=O` displayed an IC50 of 475 µM.
Same read-out and setting: the figure for `O=C(/C=C/c1cc(=O)[nH]nc1-c1ccccc1)c1ccccc1` is 142 µM; for `CCOC(=O)C(=Cc1cn[nH]c(=O)c1)C(=O)OCC` it is 8.7 µM.
The same measure, in the same setting: to `Cc1[nH]c(=O)c(C#N)cc1-c1ccncc1` [MILRINONE] belongs 4.7 µM.

In a further experiment the test system is Platelet. The experiment is described as §1. Type of experiment: functional, cell-based.
With `CC(C)OC(=O)C(=Cc1cc(=O)[nH]nc1-c1ccccc1)C(=O)OC(C)C`, the Activity result is “Dose-dependent effect”.
`O=C(OCc1ccccc1)C(=Cc1cnn(Cc2ccccc2)c(=O)c1)C(=O)OCc1ccccc1`: the Activity entry is “Dose-dependent effect”.
The same measure, in the same setting: to `COCn1nc(-c2ccccc2)c(/C=C/C(=O)OC)cc1=O` belongs “inactive”; to `COC(=O)C(=Cc1cc(=O)[nH]nc1-c1ccccc1)C(=O)OC`, “Dose-dependent effect”.
